From patent publication US6472391B2, “Nitrogen-containing heterocyclic compounds” (Millennium Pharmaceuticals, Inc., priority 1996, dated 2002)
Read-outs that look alike come from different tables or passages of the source.

Columns and labels:
Wistar-Kyoto rats = experiment: Mesangial proliferative glomerulonephritis model (anti-Thy-1.1 antibody OX-7); format: in vivo, rat; settings: per glomerulus, 7th day after OX-7; twice a day for 7 days; normal 1.8 +/− 0.3, solvent-administered 8.7 +/− 0.4
Procedure: Test Example 5 Activity on a Mesangial Proliferative Glomerulonephritis Model
Anti-rat Thy-1.1 monoclonal antibody OX-7 (Cedarlane) was administered to male Wistar-Kyoto rats (Charles River Japan, 160 g, 6 animals/group) in an amount of 1.0 mg/kg by intravenous administration through the tail vein. A test compound was suspended in a 0.5% solution of methylcellulose and the resulting suspension was administered to each of the rats twice a day for a period of 7 days starting on the day before the administration of OX-7. On the 7th day after the OX-7 administration, when mesangial cell growth and extracellular matrix hypertrophy became prominent, the left kidney of each rat was extirpated, fixed with 20% buffered formalin for 6 hours and wrapped in paraffin, followed by slicing. The obtained pieces were subjected to immune tissue staining using antibody Pd10 (DAKO) against a proliferative cell nuclear antigen. After comparative staining with Methyl Green staining solution using diaminobenzidine as a color developer, the paraffin sections were enclosed. Half of the glomeruli in a kidney piece were observed and the number of the cells in one glomerulus which were positive to the proliferative cell nuclear antigen was calculated. The test for the significance of difference was carried out by the Wilcoxon test.

[1] = test system: Vascular smooth muscle cells; experiment: Growth inhibition against smooth muscle cells (PDGF-BB stimulated, XTT method); format: cell-based; settings: Sus scrofa, 72 h, pig aorta cells, PDGF-BB 20 ng/ml, 3 days, read-out: Growth Inhibitory effect against smooth muscle cells IC50
From the text: Test Example 2 Growth Inhibition Against Smooth Muscle Cells
Vascular smooth muscle cells were isolated from a pig aorta by explantation and used for the test. The cells were put into wells of a 96-well plate (8000 cells/well) and cultured in Dulbecco's modified Eagle's medium (DMEM; Nissui Pharmaceutical Co., Ltd.) containing 10% fetal bovine serum (FBS; Hyclone) for 4 days. Then, the cells were further cultured in DMEM containing 0.1% FBS for 3 days, and were synchronized at the cell growth stationary phase.
To each well was added DMEM containing 0.1% FBS and a test sample at a varied concentration, and the cell growth was brought about by PDGF-BB (SIGMA, final concentration: 20 ng/ml). After culturing for 3 days, the cell growth was measured using the cell growth assay kit (Boehringer Mannheim) according to the XTT method [J. Immunol. Methods, 142, 257-265 (1991)], and the cell growth score was calculated by the following equation.
P100: Absorbance by XTT reagent when stimulated by PDGF-BB
P0: Absorbance by XTT reagent when not stimulated by PDGF-BB
M: Absorbance by XTT reagent after addition of a sample when stimulated by PDGF-BB

Lewis rats = experiment: Rat adjuvant arthritis model; format: in vivo; settings: 3 mg/ml suspension, 1 ml/100 g orally once a day; for inhibition at 3000 µg/mL (stock): Rattus norvegicus, po, 120 h
Procedure: Test Example 4 Evaluation by the use of a Rat Adjuvant Arthritis Model
Killed cells of Mycobacterium butyricum (Difco Laboratories Inc.) were disrupted in agate mortar and suspended in liquid paraffin to the final concentration of 6.6 mg/ml, followed by sterilization with high pressure steam. Then, 100 μl of the suspension was intradermaly injected into the right hind foot pad of each animal of groups of female 8-weeks-old Lewis rats (Charles River Japan) (6 animals/group) to induce adjuvant arthritis. A test compound was suspended in a 0.5% solution of methylcellulose to the final concentration of 3 mg/ml, and from just before the induction of arthritis, the suspension was orally administered in an amount of 1 ml/100 g of the body weight once a day, 5 days a week. To a control group was administered a 0.5% solution of methylcellulose. A normal group was given no adjuvant treatment or test compound administration. The administration of the test compound was continued till the 18th day after the adjuvant treatment. On the 17th day, the number of leukocytes in peripheral blood was counted, and on the 18th day, all the blood was collected, followed by dissection. The change in body weight with the passage of time, the change of edema in hind paw with the passage of time, the weight of spleen and thymus, the number of leukocytes in peripheral blood, the hydroxyproline content of urine, the glucosaminoglycan content of urine, the SH concentration in serum, the concentration of nitrogen monoxide in serum and the concentration of mucoprotein in serum were measured and evaluated. The volume of both hind paws was measured using a rat's hind foot edema measurement device (TK-101, Unicom). The number of leukocytes in peripheral blood was counted using an automatic multichannel blood cell counter (Sysmex K-2000, Toa Iyo Denshi Co., Ltd.). The hydroxyproline content of urine was measured according to the method described in Ikeda, et al., Annual Report of Tokyo Metropolitan Research Laboratories P. H., 36, 277 (1985), and the glucosaminoglycan content was measured according to the method described in Moriyama, et al., Hinyo Kiyo, 40, 565 (1994) and Klompmakers, et al., Analytical Biochemistry, 153, 80 (1986). […] The concentration of mucoprotein was measured using Aspro GP Kit (Otsuka Pharmaceutical Co., Ltd.). The percentage of inhibition for each indication was calculated according to the following equation.
% Inhibition={(Control group−Compound-administered group)/(Control group−Normal group)}×100

human β-PDGF receptor = molecular target: T1, human β-PDGF receptor (Homo sapiens, UniProt P09619); experiment: Inhibitory effect on phosphorylation of PDGF receptor; format: cell-based; settings: CHO cells expressing human β-PDGF receptor
T1 construct: expressed in transfected cells; host or cells: Chinese hamster ovary cells (CHO)
Procedure: Test Example 1 Inhibitory Effect on Phosphorylation of PDGF Receptor
The test was carried out according to the method described in the literature [Dah-Shuhn et al., J. Biol. Chem., 266, 413-418 (1991)], using Chinese hamster ovary cells (CHO) wherein human β-PDGF receptor cDNA was introduced and expressed.

T1 sequence (P09619 33-1106): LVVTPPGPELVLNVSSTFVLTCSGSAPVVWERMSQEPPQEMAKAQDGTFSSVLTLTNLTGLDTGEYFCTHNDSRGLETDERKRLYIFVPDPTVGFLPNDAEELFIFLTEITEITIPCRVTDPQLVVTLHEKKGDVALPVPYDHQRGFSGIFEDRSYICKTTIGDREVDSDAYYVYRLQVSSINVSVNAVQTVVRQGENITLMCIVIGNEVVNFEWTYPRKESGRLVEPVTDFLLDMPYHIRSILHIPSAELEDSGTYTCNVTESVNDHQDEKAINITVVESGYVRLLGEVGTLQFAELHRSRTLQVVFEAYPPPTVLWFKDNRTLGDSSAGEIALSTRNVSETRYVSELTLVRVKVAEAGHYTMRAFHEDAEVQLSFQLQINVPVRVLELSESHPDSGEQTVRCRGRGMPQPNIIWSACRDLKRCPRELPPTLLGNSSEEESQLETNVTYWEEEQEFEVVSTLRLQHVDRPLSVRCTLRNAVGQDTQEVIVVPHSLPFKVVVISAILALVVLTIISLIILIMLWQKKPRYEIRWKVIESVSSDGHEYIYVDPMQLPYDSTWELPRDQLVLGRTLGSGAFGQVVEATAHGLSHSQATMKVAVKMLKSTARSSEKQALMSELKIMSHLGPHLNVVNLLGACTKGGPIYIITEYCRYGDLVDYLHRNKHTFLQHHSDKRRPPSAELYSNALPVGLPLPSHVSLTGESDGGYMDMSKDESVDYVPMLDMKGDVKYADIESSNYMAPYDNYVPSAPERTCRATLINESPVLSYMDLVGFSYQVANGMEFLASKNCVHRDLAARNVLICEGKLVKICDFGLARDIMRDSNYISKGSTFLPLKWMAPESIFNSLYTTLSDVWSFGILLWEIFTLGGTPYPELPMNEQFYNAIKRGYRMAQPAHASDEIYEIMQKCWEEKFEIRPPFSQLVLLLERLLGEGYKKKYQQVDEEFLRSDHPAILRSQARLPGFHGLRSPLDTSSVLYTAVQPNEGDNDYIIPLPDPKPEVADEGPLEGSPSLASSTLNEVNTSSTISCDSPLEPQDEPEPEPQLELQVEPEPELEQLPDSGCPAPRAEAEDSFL

melting point	IC50 (human β-PDGF receptor)	SMILES	IC50 [1]	further results
113 to 114 °C	–	COc1cc2ncnc(N3CCN(C(=S)NCc4ccc5c(c4)OCO5)CC3)c2cc1OC [Compound 208, 4-(6,7-dimethoxy-4-quinazolinyl)-N-(3,4-methylenedioxybenzyl)-1-piperazinethiocarboxamide]	–	Number of cells which are positive to intranuclear antigen of proliferative cells (Wistar-Kyoto rats): 6.1 +/− 0.9
272 to 274 °C	–	COc1cc2ncnc(N3CCN(C(=O)Nc4ccc([N+](=O)[O-])cc4)CC3)c2cc1OC [Compound 77, 4-(6,7-dimethoxy-4-quinazolinyl)-N-(4-nitrophenyl)-1-piperazinecarboxamide]	100 nM	–
274 to 275 °C	–	COc1cc2ncnc(N3CCN(C(=O)Nc4ccc(C#N)cc4)CC3)c2cc1OC [Compound 239, N-(4-Cyanophenyl)-4-(6,7-dimethoxy-4-quinazolinyl)-1-piperazinecarboxamide]	–	Volume of left hind foot (Lewis rats; 5 days a week, normal 1.12 ± 0.03, sensitized control 1.84 ± 0.18): 1.52 ± 0.16 mL; Weight of spleen (Lewis rats; normal 21.4 ± 0.3, sensitized control 53.8 ± 3.8, P < 0.05 vs control): 40.4 ± 2.5 mg/10 g of body weight; Body weight (Lewis rats; normal 191 ± 5, sensitized control 146 ± 4, P < 0.05 vs control): 159 ± 2 g; inhibition at 3000 µg/mL (stock) (Lewis rats; 5 days a week, read-out: Inhibition rate (NO concentration)): 42%; inhibition at 3000 µg/mL (stock) (Lewis rats; 5 days a week, read-out: Inhibition rate (body weight)): 29%; inhibition at 3000 µg/mL (stock) (Lewis rats; 5 days a week, read-out: Inhibition rate (volume of left hind foot)): 44%; inhibition at 3000 µg/mL (stock) (Lewis rats; 5 days a week, read-out: Inhibition rate (weight of spleen)): 41%; NO concentration (Lewis rats; serum, normal 11.1 ± 1.0, sensitized control 56.6 ± 7.0): 37.6 ± 4.0 µM
140 to 143 °C	120 nM	COc1cc2ncnc(N3CCN(C(=S)Nc4cccc([N+](=O)[O-])c4)CC3)c2cc1OC [Compound 79, 4-(6,7-Dimethoxy-4-quinazolinyl)-N-(3-nitrophenyl)-1-piperazinethiocarboxamide]	140 nM	–
252 to 254 °C	–	COc1cc2ncnc(N3CCN(C(=O)Nc4ccc(C(C)C)cc4)CC3)c2cc1OC [Compound 19, 4-(6,7-Dimethoxy-4-quinazolinyl)-N-(4-isopropylphenyl)-1-piperazinecarboxamide]	180 nM	–
–	–	COc1cc2ncnc(N3CCN(C(=O)Nc4ccc(Oc5ccccc5)cc4)CC3)c2cc1OC [Compound 60, 4-(6,7-Dimethoxy-4-quinazolinyl)-N-(4-phenoxyphenyl)-1-piperazinecarboxamide]	30 nM	–
177 to 178 °C	580 nM	COc1cc2ncnc(N3CCN(C(=S)Nc4ccccc4[N+](=O)[O-])CC3)c2cc1OC [Compound 78, 4-(6,7-Dimethoxy-4-quinazolinyl)-N-(2-nitrophenyl)-1-piperazinethiocarboxamide]	740 nM	–
223 to 228 °C	160 nM	COc1cc2ncnc(N3CCN(C(=O)Nc4ccc(Br)cc4)CC3)c2cc1OC [Compound 45, N-(4-bromophenyl)-4-(6,7-dimethoxy-4-quinazolinyl)-1-piperazinecarboxamide]	80 nM	–
